US7582604B2, “Template-fixed peptidomimetics with antibacterial activity” (Polyphor Ltd., priority 2002, dated 2009)
Values after ≈ are worked out from the molar mass of the structure shown. Where a SMILES comes first, the peptide text is derived from it. [ ]: non-standard residue; d: D form.

Tests used:
[1] = test system: Staphylococcus aureus ATCC 29213; test: MIC, NCCLS broth microdilution in Mueller-Hinton broth; format: cell-based; conditions: 18-20 hours at 37° C.
Experimental: (§1) Lyophilized peptides were weighed on a Microbalance (Mettler MT5) and dissolved in sterile water containing 0.01% acetic acid.
(§2) The selective antimicrobial activities of the peptides were determined by the standard NCCLS broth microdilution method (see ref 1, below) examined in sterile 96-wells plates (Nunclon polystyrene microtiter plates) in a total volume of 100 μl. Innocula of the microorganisms were prepared with 0.5 Mcfarland standard and then diluted into Müeller-Hinton (MH^+) broth to give appr. 10^6 colony forming units (CFU)/rnl for bacteria Aliquots (50 μl) of the innocula were added to 50 μl of MH broth containing the peptide in serial twofold dilutions. For the screening of the peptides displaying selectivity, the following microorganisms were used: Escherichia coli (ATCC 25922), Pseudomonas aeruginosa (P. aeruginosa) (ATCC 27853), Staphylococcus aureus (ATCC 29213 and ATCC 25923), and clinical isolates of Pseudomonas aeruginosa (P. aeruginosa) V02 16085 and Acinetobacter (Acinetobacter V04 19905/1, Acinetobacter V12 21143/1 and Acinetobacter V12 21193/1). Antimicrobial activities of the peptides were expressed as the minimal inhibitory concentration (MIC) in μg/ml at which no visible growth was observed after 18-20 hours of incubation of the microtiter plates at 37° C.

[2] = test system: human red blood cells (hRBC); format: cell-based; conditions: red cells of human, 1 h
Experimental: The peptides were tested for their hemolytic activity against human red blood cells (hRBC). Fresh hRBC were washed three times with phosphate buffered saline (PBS) by centrifugation for 10 min at 2000×g. Peptides at a concentration of 100 μg/ml were incubated with 20% v/v hRBC for 1 hour at 37° C. The final erythrocyte concentration was appr. 0.9×10^9/ml. A value of 0% resp. 100% cell lysis was determined by incubation of the hRBC in the presence of PBS alone and resp. 0.1% Triton X-100 in H2O. The samples were centrifuged and the supernatant was 20 fold diluted in PBS buffer and the optical density (OD) of the sample at […] was measured. The 100% lysis value (OD540H2O) gave an OD of approximately 1.6-2.0. Percent hemolysis was calculated as follows: […]

[3] = test system: Escherichia coli ATCC 43827; format: cell-based
[4] = test system: P. aeruginosa VO216085 (clinical isolate); format: cell-based, Pseudomonas aeruginosa
Experimental: as §1, §2
(§3) Salt sensitivity of the peptides was tested by the microtiter serial dilution assay as described above. Only MH broth was replaced by MH broth containing 0.9% NaCl.

[5] = test system: P. aeruginosa ATCC 278853; format: cell-based, Pseudomonas aeruginosa
Experimental: as §1, §2, §3

[6] = test system: Escherichia coli ATCC 25922; format: cell-based
Experimental: as §1, §2, §3

[7] = test system: Acinetobacter V12 21143/1 (clinical isolate); format: cell-based
Experimental: as §1, §2, §3

[8] = test system: Acinetobacter V12 21193/1 (clinical isolate); format: cell-based
Experimental: as §1, §2, §3

Structure (SMILES) | Minimal inhibitory concentration (MIC) Staphylococcus attreus ATCC 29213 [1] | Hemolysis at 100 μg/ml (percentage hemolysis) [2] | Minimal inhibitory concentration (MIC) Escherichia coli ATCC 43827 [3] | Minimal inhibitory concentration (MIC) P. aeruginosa VO216085 [4] | Minimal inhibitory concentration (MIC) P. aeruginosa ATCC 278853 [5] | Minimal inhibitory concentration (MIC) Escherichia coli ATCC 25922 [6] | Minimal inhibitory concentration (MIC) Acinetobacter V12 21143/1 [7] | Minimal inhibitory concentration (MIC) Acinetobacter V12 21193/1 [8]
CC(C)C[C@@H]1NC(=O)[C@H](Cc2c[nH]c3ccccc23)NC(=O)[C@H](CCCNC(=N)N)NC(=O)[C@@H]2CCCN2C(=O)[C@H]2CCCN2C(=O)[C@H](CCCNC(=N)N)NC(=O)[C@H](C(C)C)NC(=O)[C@H](Cc2ccc(O)cc2)NC(=O)[C@H](CCCCN)NC(=O)[C@H](Cc2c[nH]c3ccccc23)NC(=O)[C@H](CCCNC(=N)N)NC(=O)[C@H](CCCNC(=N)N)NC(=O)[C@H](CCCCN)NC(=O)[C@H](CCCCN)NC1=O [Ex. 2] (cyclo(RWLKKRRWKYVR[dP]P)) | 100 µg/mL (≈ 51.2 µM) | 0.5% | 100 µg/mL (≈ 51.2 µM) | 6.2 µg/mL (≈ 3.18 µM) | 9.4 µg/mL (≈ 4.82 µM) | 100 µg/mL (≈ 51.2 µM) | 12.5 µg/mL (≈ 6.41 µM) | 25 µg/mL (≈ 12.8 µM)
CC(C)C[C@@H]1NC(=O)[C@H](Cc2c[nH]c3ccccc23)NC(=O)[C@H](CCCNC(=N)N)NC(=O)[C@H](CCCNC(=N)N)NC(=O)[C@H](CCCCN)NC(=O)[C@H](CCCCN)NC(=O)[C@H](CC(C)C)NC(=O)[C@H](Cc2c[nH]c3ccccc23)NC(=O)[C@H](CCCNC(=N)N)NC(=O)[C@@H]2CCCN2C(=O)[C@H]2CCCN2C(=O)[C@H](CCCNC(=N)N)NC(=O)[C@H](Cc2ccc(O)cc2)NC(=O)[C@H](Cc2ccc(O)cc2)NC1=O [compound 1] (cyclo(RWLKKRRWLYYR[dP]P)) | 25 µg/mL (≈ 12.5 µM) | 0.5% | 200 µg/mL (≈ 100 µM) | 50 µg/mL (≈ 25 µM) | 50 µg/mL (≈ 25 µM) | 100 µg/mL (≈ 50 µM) | 6.2 µg/mL (≈ 3.1 µM) | 6.2 µg/mL (≈ 3.1 µM)
CC(C)C[C@@H]1NC(=O)[C@H](Cc2c[nH]c3ccccc23)NC(=O)[C@H](CCCNC(=N)N)NC(=O)[C@@H]2CCCN2C(=O)[C@H]2CCCN2C(=O)[C@H](CCCNC(=N)N)NC(=O)[C@H](Cc2ccc(O)cc2)NC(=O)[C@H]([C@@H](C)O)NC(=O)[C@H](CCCCN)NC(=O)[C@H](Cc2c[nH]c3ccccc23)NC(=O)[C@H](CCCNC(=N)N)NC(=O)[C@H](CCCNC(=N)N)NC(=O)[C@H](CCCCN)NC(=O)[C@H](CCCCN)NC1=O [compound 3] (cyclo(RWLKKRRWKTYR[dP]P)) | 100 µg/mL (≈ 51.2 µM) | 1.5% | 200 µg/mL (≈ 102 µM) | 9.4 µg/mL (≈ 4.81 µM) | 200 µg/mL (≈ 102 µM) | 200 µg/mL (≈ 102 µM) | 25 µg/mL (≈ 12.8 µM) | 100 µg/mL (≈ 51.2 µM)
CC(C)C[C@@H]1NC(=O)[C@H](Cc2c[nH]c3ccccc23)NC(=O)[C@H](CCCNC(=N)N)NC(=O)[C@@H]2CCCN2C(=O)[C@H]2CCCN2C(=O)[C@H](CCCNC(=N)N)NC(=O)[C@H](Cc2ccc(O)cc2)NC(=O)[C@H](CCC(N)=O)NC(=O)[C@H](CCCCN)NC(=O)[C@H](Cc2c[nH]c3ccccc23)NC(=O)[C@H](CCCNC(=N)N)NC(=O)[C@H](CCCNC(=N)N)NC(=O)[C@H](CCCCN)NC(=O)[C@H](CCCCN)NC1=O [compound 4] (cyclo(RWLKKRRWKQYR[dP]P)) | 100 µg/mL (≈ 50.5 µM) | 0.6% | 200 µg/mL (≈ 101 µM) | 3.1 µg/mL (≈ 1.57 µM) | 6.2 µg/mL (≈ 3.13 µM) | 100 µg/mL (≈ 50.5 µM) | 12.5 µg/mL (≈ 6.31 µM) | 25 µg/mL (≈ 12.6 µM)
CC(C)C[C@@H]1NC(=O)[C@H](Cc2c[nH]c3ccccc23)NC(=O)[C@H](CCCNC(=N)N)NC(=O)[C@@H]2CCCN2C(=O)[C@H]2CCCN2C(=O)[C@H](CCCNC(=N)N)NC(=O)[C@H](Cc2ccc(O)cc2)NC(=O)[C@H](Cc2ccc(O)cc2)NC(=O)[C@H](CCCCN)NC(=O)[C@H](Cc2c[nH]c3ccccc23)NC(=O)[C@H](CCCNC(=N)N)NC(=O)[C@H](CCCNC(=N)N)NC(=O)[C@H](CCCCN)NC(=O)[C@H](C(C)C)NC1=O [compound 5] (cyclo(RWLVKRRWKYYR[dP]P)) | 100 µg/mL (≈ 50.3 µM) | 0.5% | – | – | – | – | – | –
CC(C)C[C@@H]1NC(=O)[C@H](Cc2c[nH]c3ccccc23)NC(=O)[C@H](CCCNC(=N)N)NC(=O)[C@@H]2CCCN2C(=O)[C@H]2CCCN2C(=O)[C@H](CCCNC(=N)N)NC(=O)[C@H](Cc2ccc(O)cc2)NC(=O)[C@H](Cc2ccc(O)cc2)NC(=O)[C@H](C(C)C)NC(=O)[C@H](Cc2c[nH]c3ccccc23)NC(=O)[C@H](CCCNC(=N)N)NC(=O)[C@H](CCCNC(=N)N)NC(=O)[C@H](CCCCN)NC(=O)[C@H](CCCCN)NC1=O [compound 6] (cyclo(RWLKKRRWVYYR[dP]P)) | 100 µg/mL (≈ 50.3 µM) | 0.5% | – | – | – | – | – | –
CC(C)C[C@@H]1NC(=O)[C@H](Cc2c[nH]c3ccccc23)NC(=O)[C@H](CCCNC(=N)N)NC(=O)[C@@H]2CCCN2C(=O)[C@H]2CCCN2C(=O)[C@H](CCCNC(=N)N)NC(=O)[C@H](CCC(N)=O)NC(=O)[C@H](Cc2ccc(O)cc2)NC(=O)[C@H](CCCCN)NC(=O)[C@H](Cc2c[nH]c3ccccc23)NC(=O)[C@H](CCCNC(=N)N)NC(=O)[C@H](CCCNC(=N)N)NC(=O)[C@H](CCCCN)NC(=O)[C@H](CCCCN)NC1=O [compound 7] (cyclo(RWLKKRRWKYQR[dP]P)) | 200 µg/mL (≈ 101 µM) | 0.7% | – | – | – | – | – | –
CC(C)C[C@@H]1NC(=O)[C@H](Cc2c[nH]c3ccccc23)NC(=O)[C@H](CCCNC(=N)N)NC(=O)[C@@H]2CCCN2C(=O)[C@H]2CCCN2C(=O)[C@H](CCCNC(=N)N)NC(=O)[C@H](CC(C)C)NC(=O)[C@H](Cc2ccc(O)cc2)NC(=O)[C@H](CCCCN)NC(=O)[C@H](Cc2c[nH]c3ccccc23)NC(=O)[C@H](CCCNC(=N)N)NC(=O)[C@H](CCCNC(=N)N)NC(=O)[C@H](CCCCN)NC(=O)[C@H](CCCCN)NC1=O [compound 8] (cyclo(RWLKKRRWKYLR[dP]P)) | 100 µg/mL (≈ 50.9 µM) | 0.4% | – | – | – | – | – | –
